In patent US10703757B2, “Compounds and methods for CDK8 modulation and indications therefor” (Plexxikon Inc., priority 2016, dated 2020):

Columns and labels:
[1] = test system: CDK8 (TCF/LEF luciferase reporter in HCT116 cells); test: Cell based TCF/LEF reporter assay (HCT116+TCF/LEF luciferase); settings: Homo sapiens, HCT-116, 24 h
Summary of the method: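 HCT116 cells stably carrying a TCF/LEF-luciferase reporter (endogenous mutant β-catenin), seeded overnight, then exposed to serial compound dilutions for 24 h at 37 °C. Luminescence normalized to CellTiter-Fluor viability signal. % inhibition relative to DMSO and 10 uM CCT251545 controls, with IC50 from nonlinear regression.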

[2] = test system: CDK8 (phosphorylation of STAT1 at serine 727 in A549 cells); test: Cell based Phospho-STAT1 assay (IFNγ-stimulated A549 cells, AlphaLISA); settings: Homo sapiens, A549, A549 cells, phospho-STAT1 after IFNγ stimulation
Summary of the method: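 A549 cells given serial compound dilutions for 1 h at 37 °C, then stimulated with IFNγ at 10 ng/mL final for 30 min. Lysate STAT1 Ser727 phosphorylation measured by AlphaLISA; % inhibition vs stimulated/unstimulated DMSO controls, IC50 by nonlinear regression.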

Row | IC50 [1] [nM] | IC50 [2] [nM] | Compound
1 | 1000 to 10000 | 1000 to 10000 | CS(=O)(=O)C1CCC(Oc2cccc3ncc(-c4ccc(-c5cnn(C(F)F)c5)cc4)n23)C1 (centres unmarked) [Compound P-0321, 3-(4-(1-(difluoromethyl)-1H-pyrazol-4-yl)phenyl)-5-((3-(methylsulfonyl)cyclopentyl)oxy) imidazo[1,2-a]pyridine]
2 | 100 to 1000 | 100 to 1000 | N#CC1(c2ccccc2)CCN(c2cccc3ncc(-c4ccc(-c5cnn(C(F)F)c5)cc4)n23)CC1 [Compound P-0322, 1-(3-(4-(1-(difluoromethyl)-1H-pyrazol-4-yl)phenyl)imidazo[1,2-a]pyridin-5-yl)-4-phenylpiperidine-4-carbonitrile]
3 | 0.1 to 100 | 0.1 to 100 | Cn1cc(-c2ccc(-c3cnn4ccnc(C5=CCC(C#N)CC5)c34)cc2)cn1 (centres unmarked) [Compound P-0323, 4-(3-(4-(1-methyl-1H-pyrazol-4-yl)phenyl)pyrazolo[1,5-a]pyrazin-4-yl)cyclohex-3-ene-1-carbonitrile]
4 | 0.1 to 100 | 0.1 to 100 | Cn1ncc2cc(-c3cnn4ccnc(C5=CCC(C#N)CC5)c34)ccc21 (centres unmarked) [Compound P-0324, 4-(3-(1-methyl-1H-indazol-5-yl)pyrazolo[1,5-a]pyrazin-4-yl)cyclohex-3-ene-1-carbonitrile]
5 | 0.1 to 100 | 0.1 to 100 | N#CC1CCN(c2c(-c3ccc(OCCCN4CCOCC4)cc3)cnc3[nH]ccc23)CC1 [Compound P-0327, 1-(5-(4-(3-morpholinopropoxy)phenyl)-1H-pyrrolo[2,3-b]pyridin-4-yl)piperidine-4-carbonitrile]
6 | 0.1 to 100 | 0.1 to 100 | CN1CCN(C(=O)c2ccc3cc(-c4cnc5[nH]ccc5c4N4CCC(C#N)CC4)ccc3c2)CC1 [Compound P-0328, 1-(5-(6-(4-methylpiperazine-1-carbonyl)naphthalen-2-yl)-1H-pyrrolo[2,3-b]pyridin-4-yl)piperidine-4-carbonitrile]
7 | 0.1 to 100 | 0.1 to 100 | CC(C)(O)Cn1cc(-c2ccc(-c3cnc4[nH]ccc4c3N3CCC(C#N)CC3)cc2)cn1 [Compound P-0329, 1-(5-(4-(1-(2-hydroxy-2-methylpropyl)-1H-pyrazol-4-yl)phenyl)-1H-pyrrolo[2,3-b]pyridin-4-yl)piperidine-4-carbonitrile]
8 | 0.1 to 100 | 0.1 to 100 | CNC(=O)c1ccc2cc(-c3cnn4cccc(C5=CCC(C#N)CC5)c34)ccc2c1 (centres unmarked) [Compound P-0330, 6-(4-(4-cyanocyclohex-1-en-1-yl)pyrazolo[1,5-a]pyridin-3-yl)-N-methyl-2-naphthamide]
9 | 100 to 1000 | 100 to 1000 | CN1CCN(C(=O)c2ccc(-c3cnc4[nH]ccc4c3C3=CCC(C#N)CC3)cc2)CC1 (centres unmarked) [Compound P-0331, 4-(5-(4-(4-methylpiperazine-1-carbonyl)phenyl)-1H-pyrrolo[2,3-b]pyridin-4-yl)cyclohex-3-ene-1-carbonitrile]
10 | 0.1 to 100 | 0.1 to 100 | CC(C)(O)Cn1cc(-c2ccc(-c3cnc4[nH]ccc4c3C3=CCC(C#N)CC3)cc2)cn1 (centres unmarked) [Compound P-0332, 4-(5-(4-(1-(2-hydroxy-2-methylpropyl)-1H-pyrazol-4-yl)phenyl)-1H-pyrrolo[2,3-b]pyridin-4-yl)cyclohex-3-ene-1-carbonitrile]
11 | 100 to 1000 | 100 to 1000 | Cn1cc(-c2ccc(-c3cnn4cccc(C5=CCC(C(=O)N6CCC6)CC5)c34)cc2)cn1 (centres unmarked) [Compound P-0333, azetidin-1-yl-[4-[3-[4-(1-methylpyrazol-4-yl)phenyl]pyrazolo[1,5-a]pyridin-4-yl]cyclohex-3-en-1-yl]methanone]
12 | 0.1 to 100 | 0.1 to 100 | Cn1ncc2cc(-c3cnn4cccc(C5CCC(C#N)CC5)c34)ccc21 (centres unmarked) [Compound P-0337, 4-(3-(1-methyl-1H-indazol-5-yl)pyrazolo[1,5-a]pyridin-4-yl)cyclohexane-1-carbonitrile]
13 | 0.1 to 100 | 0.1 to 100 | Cn1cc(-c2ccc(-c3cnc4[nH]ccc4c3C#CC(C)(C)O)cc2)cn1 [Compound P-0341, 2-methyl-4-(5-(4-(1-methyl-1H-pyrazol-4-yl)phenyl)-1H-pyrrolo[2,3-b]pyridin-4-yl)but-3-yn-2-ol]
14 | 0.1 to 100 | 0.1 to 100 | Cn1ncc2cc(-c3cnc4[nH]ccc4c3C3=CCC(C#N)CC3)ccc21 (centres unmarked) [Compound P-0358, 4-(5-(1-methyl-1H-indazol-5-yl)-1H-pyrrolo[2,3-b]pyridin-4-yl)cyclohex-3-ene-1-carbonitrile]
15 | 0.1 to 100 | 0.1 to 100 | Cn1cc(-c2ccc(-c3cnc4[nH]ccc4c3C3=CCC(C#N)CC3)cc2)cn1 (centres unmarked) [Compound P-0359, 4-(5-(4-(1-methyl-1H-pyrazol-4-yl)phenyl)-1H-pyrrolo[2,3-b]pyridin-4-yl)cyclohex-3-ene-1-carbonitrile]
16 | 100 to 1000 | 0.1 to 100 | Cn1ncc2cc(-c3cnn4cccc(C#CC5(O)COC5)c34)ccc21 [Compound P-0362, 3-((3-(1-methyl-1H-indazol-5-yl)pyrazolo[1,5-a]pyridin-4-yl)ethynyl)oxetan-3-ol]

Row | IC50 [1] [nM] | IC50 [2] [nM] | Compound
17 | 0.1 to 100 | 0.1 to 100 | N#CC1CCN(c2cccn3ncc(-c4ccc(-n5cccn5)cc4)c23)CC1 [Compound P-0363, 1-(3-(4-(1H-pyrazol-1-yl)phenyl)pyrazolo[1,5-a]pyridin-4-yl)piperidine-4-carbonitrile]
18 | 0.1 to 100 | 0.1 to 100 | Cc1noc(-c2ccc(-c3cnn4cccc(N5CCC(C#N)CC5)c34)cc2)n1 [Compound P-0366, 1-(3-(4-(3-methyl-1,2,4-oxadiazol-5-yl)phenyl)pyrazolo[1,5-a]pyridin-4-yl)piperidine-4-carbonitrile]
19 | 0.1 to 100 | 0.1 to 100 | N#CC1CCN(c2cccn3ncc(-c4ccc(-c5cnn(C(F)F)c5)cc4)c23)CC1 [Compound P-0415, 1-(3-(4-(1-(difluoromethyl)-1H-pyrazol-4-yl)phenyl)pyrazolo[1,5-a]pyridin-4-yl)piperidine-4-carbonitrile]
20 | 100 to 1000 | 100 to 1000 | Cn1cc(-c2ccc(-c3cnc4cccc(C5=CCC(C(N)=O)CC5)n34)cc2)cn1 (centres unmarked) [Compound P-0416, 4-(3-(4-(1-methyl-1H-pyrazol-4-yl)phenyl)imidazo[1,2-a]pyridin-5-yl)cyclohex-3-ene-1-carboxamide]
21 | 0.1 to 100 | 0.1 to 100 | Cn1cc(-c2ccc(-c3cnc4[nH]ccc4c3N3CCC(C#N)CC3)cc2)cn1 [Compound P-0421, 1-(5-(4-(1-methyl-1H-pyrazol-4-yl)phenyl)-1H-pyrrolo[2,3-b]pyridin-4-yl)piperidine-4-carbonitrile]
22 | 0.1 to 100 | 0.1 to 100 | Cn1cc(-c2ccc(-c3cnn4cccc(C#CC(C)(C)O)c34)cc2)cn1 [Compound P-0429, 2-methyl-4-[3-[4-(1-methylpyrazol-4-yl)phenyl]pyrazolo[1,5-a]pyridin-4-yl]but-3-yn-2-ol]
23 | 0.1 to 100 | 0.1 to 100 | Cn1cc(C#Cc2cnc3cccc(N4CCC5(CC4)C(=O)Nc4ccccc45)n23)cn1 [Compound P-0437, 1′-(3-((1-methyl-1H-pyrazol-4-yl)ethynyl)imidazo[1,2-a]pyridin-5-yl)spiro[indoline-3,4′-piperidin]-2-one]
24 | 0.1 to 100 | 0.1 to 100 | N#CC1CC=C(c2cccc3ncc(-c4ccc(-c5cnn(C(F)F)c5)cc4)n23)CC1 (centres unmarked) [Compound P-0438, 4-(3-(4-(1-(difluoromethyl)-1H-pyrazol-4-yl)phenyl)imidazo[1,2-a]pyridin-5-yl)cyclohex-3-ene-1-carbonitrile]
25 | 0.1 to 100 | 0.1 to 100 | Cn1cc(-c2ccc(-c3cnn4cccc(C5=CCC(C(N)=O)CC5)c34)cc2)cn1 (centres unmarked) [Compound P-0443, 4-(3-(4-(1-methyl-1H-pyrazol-4-yl)phenyl)pyrazolo[1,5-a]pyridin-4-yl)cyclohex-3-ene-1-carboxamide]
26 | 100 to 1000 | 100 to 1000 | Cn1cc(-c2ccc(-c3cnn4cccc(C5=CCC(C(=O)O)CC5)c34)cc2)cn1 (centres unmarked) [Compound P-0444, 4-(3-(4-(1-methyl-1H-pyrazol-4-yl)phenyl)pyrazolo[1,5-a]pyridin-4-yl)cyclohex-3-ene-1-carboxylic acid]
27 | 0.1 to 100 | 0.1 to 100 | Cn1cc(-c2ccc(-c3cnc4cccc(C5=CCC(C#N)CC5)n34)cc2)cn1 (centres unmarked) [Compound P-0445, 4-(3-(4-(1-methyl-1H-pyrazol-4-yl)phenyl)imidazo[1,2-a]pyridin-5-yl)cyclohex-3-ene-1-carbonitrile]
28 | 0.1 to 100 | 0.1 to 100 | Cn1cc(-c2ccc(-c3cnn4cccc(C5=CCC(C#N)CC5)c34)cc2)cn1 (centres unmarked) [Compound P-0452, 4-(3-(4-(1-methyl-1H-pyrazol-4-yl)phenyl)pyrazolo[1,5-a]pyridin-4-yl)cyclohex-3-ene-1-carbonitrile]
29 | 0.1 to 100 | 0.1 to 100 | Cn1cc(-c2ccc(-c3cnc4cccc(N5CCC6(CC5)C(=O)Nc5ccccc56)n34)cc2)cn1 [Compound P-0454, 1′-(3-(4-(1-methyl-1H-pyrazol-4-yl)phenyl)imidazo[1,2-a]pyridin-5-yl)spiro[indoline-3,4′-piperidin]-2-one]
30 | 0.1 to 100 | 0.1 to 100 | CC(C)(C#Cc1nccn2ncc(-c3ccc(-c4cnn(CCCC#N)c4)cc3)c12)C(N)=O [Compound P-0456, 4-(3-(4-(1-(3-cyanopropyl)-1H-pyrazol-4-yl)phenyl)pyrazolo[1,5-a]pyrazin-4-yl)-2,2-dimethylbut-3-ynamide]
31 | 0.1 to 100 | 0.1 to 100 | COc1ccc(-c2cnn3ccnc(C4CCC(C#N)CC4)c23)cc1C (centres unmarked) [Compound P-0457, (1s,4s)-4-(3-(4-methoxy-3-methylphenyl)pyrazolo[1,5-a]pyrazin-4-yl)cyclohexane-1-carbonitrile]
